This note sets out measurements from US4943561A, “Gastrin releasing peptide antagonist” (Merck & Co., Inc., priority 1988, dated 1990).

Each structure is given as a SMILES string. Residues, ends and D or L forms follow the SMILES beside them. *: point of attachment. NH(2-Me-nonan-4R-yl) = CCCCC[C@H](CC(C)C)N*; NHCH(iBu)2 = CC(C)CC(CC(C)C)N*; X1 = CCCCC[C@@H](CC(C)C)N*; X2 = CCCC=C[C@H](CC(C)C)N*; Boc = CC(C)(C)OC(=O)*; Piv = CC(C)(C)C(=O)*; Ms = CS(=O)(=O)*

One experiment deals with Swiss 3T3 cells. Description: Procedure C: Mitogenesis Inhibition (GRP-stimulated 3H-thymidine uptake). The format is cell-based, murine. Particulars: GRP plus antagonist, 48 hours. Here is the method:
The activity of the peptide derivatives of the present invention as GRP antagonists was determined in competitive binding assays with a radio-active GRP derivative. Swiss 3T3 fibroblasts were used in these tests as the source of GRP receptor. Because these cells respond to GRP binding with a rapid increase in DNA synthesis, compounds that bind to the GRP receptor can also be tested for their ability to stimulate DNA synthesis. New DNA synthesis is one of the early steps in cell division and is widely accepted as a measure of mitogenicity or cell growth. […] Compounds which block DNA synthesis are mitogenic antagonists. […] Swiss 3T3 cells were grown in monolayer culture in 24 -well plates (Costar) in serum free DMEM for 48 hours, at which time the GRP or a GRP homologue. The antagonist and 23 nM ^3 H-thymidine were added. After an additional 48 hours, the cell monolayer was washed twice with PBS, and the cells were then removed with 1 ml 10x trypsin containing 5 mM EDTA. The cells were harvested with a Skatron filter apparatus, and the filters counted in a scintillation counter.
As for `CCCCC[C@H](CC(C)C)NC(=O)[C@H](Cc1c[nH]cn1)NC(=O)CNC(=O)[C@@H](NC(=O)[C@H](C)NC(=O)[C@H](Cc1c[nH]c2ccccc12)NC(=O)[C@H](Cc1c[nH]cn1)NC(=O)C(C)(C)C)C(C)C` [4(R)] (Piv-HWAVGH-{NH(2-Me-nonan-4R-yl)}), the IC50 worked out at 2 nM.

For a further experiment, the target named is T1, GRP receptor (Mus musculus, UniProt P21729).
T1 construct: endogenous in cells; host or cells: Swiss 3T3 fibroblasts (intact monolayers)
T1 sequence (P21729 whole entry): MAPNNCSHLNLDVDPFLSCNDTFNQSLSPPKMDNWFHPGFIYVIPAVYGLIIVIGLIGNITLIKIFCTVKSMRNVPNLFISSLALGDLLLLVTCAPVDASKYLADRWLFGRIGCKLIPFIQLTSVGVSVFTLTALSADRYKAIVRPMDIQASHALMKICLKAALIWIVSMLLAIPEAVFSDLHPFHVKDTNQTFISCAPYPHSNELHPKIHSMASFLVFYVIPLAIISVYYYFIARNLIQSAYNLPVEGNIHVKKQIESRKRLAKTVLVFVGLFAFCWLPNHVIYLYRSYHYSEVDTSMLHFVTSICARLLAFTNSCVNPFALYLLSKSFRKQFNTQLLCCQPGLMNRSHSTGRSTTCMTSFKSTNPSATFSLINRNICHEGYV
Description: Procedure A: Binding Inhibition Studies (competition with [3H-Phe15]GRP15-27). Particulars: Swiss 3T3 cells; 3 nM [3H-Phe15]GRP15-27; 60 minutes at 15° C. Also noted: species or system murine. Here is the method:
The activity of the peptide derivatives of the present invention as GRP antagonists was determined in competitive binding assays with a radio-active GRP derivative. Swiss 3T3 fibroblasts were used in these tests as the source of GRP receptor. Because these cells respond to GRP binding with a rapid increase in DNA synthesis, compounds that bind to the GRP receptor can also be tested for their ability to stimulate DNA synthesis. New DNA synthesis is one of the early steps in cell division and is widely accepted as a measure of mitogenicity or cell growth. […] Compounds which block DNA synthesis are mitogenic antagonists.
Swiss 3T3 cells, obtained from Dr. K. Brown (Institute of Animal Physiology, Cambridge, U.K.), were grown to confluency in Costar 12 -well plates containing DMEM (Gibco) supplemented with 10% fetal bovine serum, 2 mM glutamine and 1% penicillin-streptomycin. The cells were washed twice with binding buffer [1:1 DMEM:Waymouths MB752/1 medium, plus 1 mg/ml BSA (Fraction V, Calbiochem)]. The antagonist was dissolved in 10 mM HCl, and diluted to the appropriate concentration in binding buffer. The antagonist was then added to the cells, followed by [^3 H Phe^15 ]GRP15-27 at a final concentration of 3 nM. After 60 minutes incubation at 15° C., the supernatant liquid was removed and the cell monolayer rinsed four times with washing buffer (150 mM NaCl, 20 mM Na2 HPO4, 5mM KCl, 1.8 mM KH2 PO4, 1 mg/ml BSA) The cells were then lysed with 1 ml/well of lysis buffer (1% Triton X-100, 0.1% BSA), and the solution was aspirated into scintillation vials for counting. Each data point was collected in triplicate.
On to `CCCCC[C@H](CC(C)C)NC(=O)[C@H](Cc1c[nH]cn1)NC(=O)CNC(=O)[C@@H](NC(=O)[C@H](C)NC(=O)[C@H](Cc1c[nH]c2ccccc12)NC(=O)[C@H](Cc1c[nH]cn1)NC(C)=O)C(C)C` [1(R)] (Ac-HWAVGH-{NH(2-Me-nonan-4R-yl)}), for which the IC50 came out at 2 nM.

For `CCCCC[C@@H](CC(C)C)NC(=O)[C@H](Cc1c[nH]cn1)NC(=O)CNC(=O)[C@@H](NC(=O)[C@H](C)NC(=O)[C@H](Cc1c[nH]c2ccccc12)NC(=O)[C@H](Cc1c[nH]cn1)NC(C)=O)C(C)C` [1(S)] (Ac-HWAVGH-X1), the IC50 is 17 nM.

Consider `CCCC=C[C@H](CC(C)C)NC(=O)[C@H](Cc1c[nH]cn1)NC(=O)CNC(=O)[C@@H](NC(=O)[C@H](C)NC(=O)[C@H](Cc1c[nH]c2ccccc12)NC(=O)[C@H](Cc1c[nH]cn1)NC(C)=O)C(C)C` [2(S)] (Ac-HWAVGH-X2), for which the IC50 amounted to 11 nM.

`CCCCC[C@H](CC(C)C)NC(=O)[C@H](Cc1c[nH]cn1)NC(=O)CNC(=O)[C@@H](NC(=O)[C@H](C)NC(=O)[C@H](Cc1c[nH]c2ccccc12)NC(=O)[C@H](Cc1c[nH]cn1)NS(C)(=O)=O)C(C)C` [3(R)] (Ms-HWAVGH-{NH(2-Me-nonan-4R-yl)}) registered an IC50 of 15 nM.

With `CCCCC[C@H](CC(C)C)NC(=O)[C@H](Cc1c[nH]cn1)NC(=O)CNC(=O)[C@@H](NC(=O)[C@H](C)NC(=O)[C@H](Cc1c[nH]c2ccccc12)NC(=O)[C@H](Cc1c[nH]cn1)NC(=O)C(C)(C)C)C(C)C` [4(R)] (Piv-HWAVGH-{NH(2-Me-nonan-4R-yl)}), the IC50 amounted to 3 nM.

On to `CCCCC[C@H](CC(C)C)NC(=O)[C@H](Cc1c[nH]cn1)NC(=O)CNC(=O)[C@@H](NC(=O)[C@H](C)NC(=O)[C@H](Cc1c[nH]c2ccccc12)NC(=O)[C@H](Cc1c[nH]cn1)NC(=O)OC(C)(C)C)C(C)C` [5(R)] (Boc-HWAVGH-{NH(2-Me-nonan-4R-yl)}), for which the concentration for half-maximal inhibition (IC50) stood at 2 nM.

The compound `CC(=O)N[C@@H](Cc1c[nH]cn1)C(=O)N[C@@H](Cc1c[nH]c2ccccc12)C(=O)N[C@@H](C)C(=O)N[C@H](C(=O)NCC(=O)N[C@@H](Cc1c[nH]cn1)C(=O)NC(CC(C)C)CC(C)C)C(C)C` [Example 6] (Ac-HWAVGH-{NHCH(iBu)2}) had an IC50 of 2 nM.

As a reminder, the IC50 is the concentration that inhibits the measured activity by half.
